Data from patent EP1161410B1, “RETINOID ANTAGONISTS AND USE THEREOF” (Basilea Pharmaceutica AG, priority 1999, dated 2000).

Key:
human naive T cells = test: Inhibition of differentiation of human naive T cells into T helper 2 (Th2) cells; type: cell-based; set-up: dose or concentration left out as unconfirmed; details: for IL-4 expressing cells, % gated cells: Th2 control 26.32; for IL-4 expressing cells, % Th2 cells: Th2 control = 100
Procedure: In vitro assay for inhibition of differentiation of human naive T cells into T helper 2 (Th2) cells by retinoid antagonists.
Naive T cells from cord blood were isolated and treated as described [Panina-Bordignon et al. J. Clin. Invest. 100. 1513-1519 (1997)]. Briefly, cord blood derived mononuclear cells were incubated with anti-CD45RA and anti-CD4 monoclonal antibodies. After a 20 minute incubation, cells were washed and incubated with goat antimouse Ig-coated magnetic beads. Positive cells were separated and seeded at 1 x 10^6 cells/ml in a 24 well plate, together with autologous adherent cells, PHA, and IL-4 in the presence or absence of Compound H or Compound B […] for 5 days. Cells were then washed and put back in culture in the presence of IL-2 (100 U/ml). After 10 days, the cells were collected and restimulated with PMA (50 ng/ml) and ionomycin (1 µg/ml) for 4 hours. Brefeldin A (10 µg/ml) was added for the last 2 hours. Then the cells were fixed with 4% paraformaldehyde and permeabilized with saponin. Fixed cells were stained with FITC-anti IFNγ and PE-anti-IL-4mAbs and subjected to cytofluorimetric analysis.

IL-10 = IL-10 production by activated monocytes (SAC + IFN-γ); type: cell-based, human; details: SAC+IFN-γ alone 1040 pg/ml
IL-12 [1] = test: IL-12 production by THP-1 cells stimulated with IFNγ and SAC; type: cell-based, human; details: retinoid antagonist (1 µg) added at time 0 together with IFNγ, IFNγ+SAC alone 275
Procedure: THP-1 cells were obtained from American Tissue Culture Collection and cultured in complete medium. To assay for IL-12 production, THP-1 cells, 1.25 x 10^6 cells/ml, were stimulated with S. aureus Cowan strain (SAC) (1/1000) and human recombinant interferon-γ (huIFN-γ (1000 U/ml) [Ma et al., J. Exp. Med. 183, 147-157 (1996)]. Alternatively, 0.5 x 10^6 human peripheral blood mononuclear cells (PBMC) (1 ml culture in 48 well plates) were primed with huIFN-γ (1000 U/ml) for 16 hours at 37°C, and then stimulated with SAC (1/1000). Supernatants were collected after 48 hours and freezed at -20 °C until assayed [Panina-Bordignon et al., J. Clin. Invest. 100, 1513-1519 (1997)].
IL-12 production was measured by specific enzyme linked immuno sorbant assay (ELISA), using 20C2 antibody (rat anti human IL-12 heterodimer p40-p35), at 2.5 µg/ml in coating buffer, and peroxidase-conjugated 4D6 antibody (rat anti human IL-12) at 250 ng/ml in assay buffer as described [Zhang et al., J. Clin. Invest. 93, 1733-1739 (1994)]. Standard (recombinant human IL-12, 800 pg/ml to 6 pg/ml) and samples (100 µl) diluted in assay buffer were added to duplicate wells. Absorbance was read at 450-650 nm. The unknown IL-12 concentrations of the samples were read from the corresponding standard curve and multiplied by the corresponding dilution factor. Maximal IL-12 production varied between 200 and 400 pg/ml.
Lyophilized retinoid antagonists were diluted in DMSO under yellow light, on ice at a concentration of 2 mM. Serial dilutions (1 µM-1 pM) were prepared in complete RPMI medium. 10 µl of each dilution was added to 1 ml culture.

IL-12 [2] = test: IL-12 production by activated monocytes (SAC + IFN-γ), ELISA; type: cell-based, human; details: SAC+IFN-γ alone 120-126 pg/ml
Procedure: THP-1 cells were obtained from American Tissue Culture Collection and cultured in complete medium. […] Exp. Med. 183, 147-157 (1996)]. […] Supernatants were collected after 48 hours and freezed at -20 °C until assayed [[…]-Bordignon et al., J. Clin. Invest. 100, 1513-1519 (1997)]. […] Clin. Invest. 93, 1733-1739 (1994)]. […] Absorbance was read at 450-650 nm. The unknown IL-12 concentrations of the samples were read from the corresponding standard curve and multiplied by the corresponding dilution factor. […] Serial dilutions (1 μM-1 pM) were prepared in complete RPMI medium. 10 μl of each dilution was added to 1 ml culture.

TNF-α = TNF-α production by activated monocytes (SAC + IFN-γ); type: cell-based, human; details: SAC+IFN-γ alone 1840-2000 pg/ml

Row | Structure (SMILES) | IL-4 expressing cells, % gated cells (human naive T cells) [%] | IL-4 expressing cells, % Th2 cells (human naive T cells) [%] | IL-10 (IL-10; antagonist 10 nM) [pg/mL] | IL-10 (IL-10; antagonist 100 nM) [pg/mL] | IL-10 (IL-10; antagonist 1000 nM) [pg/mL] | THP-1 IL-12 (IL-12 [1]) [pg/mL] | IL-12 (IL-12 [2]; antagonist 100 nM) [pg/mL] | IL-12 (IL-12 [2]; antagonist 1000 nM) [pg/mL] | TNF-α (TNF-α; antagonist 10 nM) [pg/mL] | TNF-α (TNF-α; antagonist 100 nM) [pg/mL] | TNF-α (TNF-α; antagonist 1000 nM) [pg/mL] | IL-12 (IL-12 [2]; antagonist 10 nM) [pg/mL]
1 | CCCCCCCOc1cc2c(cc1/C(C)=C/c1ccc(C(=O)O)cc1)C(C)(C)CCS2(=O)=O [Compound H, p-[(E)-2-[3',4'-Dihydro-4',4'-dimethyl-7'-(beptyloxy)-2'H-1-benzothiopyran-6'-yl]propenyl]benzoic acid 1',1'-dioxide] | 10.8 | 41 | 1060 | 1050 | 1343 | 306 | 102 | 251 | 1392 | 1600 | 1912 | 
2 | CCCCOc1c(\C(C)=C/C=C/C(C)=C/C(=O)O)cc(C(C)(C)C)cc1C(C)(C)C [Compound B, (2E,4E,6Z)-7-(3,5-di-tert.butyl-2-butyloxyphenyl]-3-methyl-2,4,6-octatrienoic acid] | 8.5 | 32 | 1020 | 1521 | 1700 | 577 | 161 | 298 | 1484 | 1812 | 1560 | 106
